Values quoted from earlier work, collected in patent US6071508A, “Preparation of formulations for electrotransport drug delivery” (Alza Corporation, priority 1997, dated 2000).
Where a name gives a salt, the structure may show the parent alone.

Conditions: known value

SMILES: c1ccc2c(c1)CC[C@H](CNCCCNC1=NCCCN1)O2 [drug salt of Example 1, (-)-(R)-N-[(3,4-dihydro-2H-1-benzopyran-2-yl)methyl]-N'-(1,4,5,6-tetrahydropyrimidinyl)-1,3-propanediamine dihydrochloride]
- pKa, pyrimidinamine functionality: > 11.0
- pKa, secondary amine group: 8.3
